Source: patent US12344606B2, “Next-generation modulators of stimulator of interferon genes (STING)” (RYVU THERAPEUTICS S.A., priority 2019, dated 2025)

Legend:
human STING = human STING (Homo sapiens, UniProt Q86WV6); assay: Fluorescence Thermal Shift assay (hSTING FTS binding assay); conditions: STING 0.1 mg/ml, 20 min preincubation, SyproOrange
Description: Compounds of the present invention were tested for binding to human STING in Fluorescence Thermal Shift assay. STING was preincubated with the compounds for 20 minutes in 50 mM Hepes, 150 mM NaCl, pH 7.5 in 16 μl volume, following by adding 4 μl of SyproOrange dye dilution (ThermoFisher, cat no. S-6651). Final STING concentration was 0.1 mg/ml. Thermal unfolding was performed in Real-Time PCR QuantStudio 6 Flex System (Applied Biosystems), from 25 to 99° C., with continuous ramp mode and ramp rate 0.033° C./s. The data were analyzed using Protein Thermal Shift Software (ThermoFisher).

[1] = system: interferon regulatory factor (IRF) pathway in THP-1 dual cells; assay: THP-1 Dual reporter assay, IRF pathway (luciferase); format: cell-based; conditions: Homo sapiens, THP1-Dual; 18 h stimulation, luminescence
Description: (§1) Compounds of the present invention were tested for their activity using THP-1 dual cells (Invivogen, cat no. thpd-nfis) allowing for simultaneous study of NF-κB pathway and the interferon regulatory factor (IRF) pathway. THP-1 dual cells contain luciferase reporter gene under the control of an ISG54 (interferon-stimulated gene) minimal promoter in conjunction with five interferon-stimulated response elements and a secreted embryonic alkaline phosphatase reporter gene under the control an IFN (interferon)-β minimal promoter fused to five copies of the NF-κB consensus transcriptional response element with three copies of the c-Rel binding site. Following 18 h of stimulation with STING agonist, medium was collected and transferred onto fresh cell culture plate. To verify activity of the IRF pathway, luminescence activity was measured with standard laboratory plate reader immediately after addition 10 μl of the medium to 50 μl (or 40 μl) of luminescence reagent (Invivogen, cat. No. rep-qlc2). To verify activity of NF-κB pathway, 20 μl (or 10 μl) of the medium was mixed with 80 μl of a detection medium (Invivogen, cat. No. rep-qb2) and incubated for 2 hours (or 1 hour) at 37° C. in a humidified atmosphere containing 5% CO2. Next, absorbance at 630 nm (or 655 nm) was recorded using standard laboratory plate reader.

[2] = system: NF-κB pathway in THP-1 dual cells; assay: THP-1 Dual reporter assay, NF-κB pathway (SEAP); format: cell-based; conditions: Homo sapiens, THP1-Dual; 18 h stimulation, absorbance; read-out: THP1 Dual EC50 (μM) NFkB
Description: as §1

human STING, sequence (Q86WV6 whole entry H232R): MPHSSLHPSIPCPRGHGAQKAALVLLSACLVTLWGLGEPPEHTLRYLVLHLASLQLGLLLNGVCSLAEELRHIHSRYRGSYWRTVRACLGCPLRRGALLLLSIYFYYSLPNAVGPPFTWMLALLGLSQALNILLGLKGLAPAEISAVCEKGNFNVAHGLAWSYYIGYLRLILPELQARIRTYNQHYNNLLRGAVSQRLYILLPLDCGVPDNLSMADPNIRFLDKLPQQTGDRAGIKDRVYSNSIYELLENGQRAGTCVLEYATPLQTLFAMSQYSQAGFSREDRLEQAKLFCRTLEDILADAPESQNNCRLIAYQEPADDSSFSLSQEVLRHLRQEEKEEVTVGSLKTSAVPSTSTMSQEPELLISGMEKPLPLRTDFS

hSTING FTS binding assay (ΔT C.°) (human STING)	EC50 [1] [µM]	EC50 [2] [µM]	SMILES
	1 to 10	1 to 10	Cc1cc(CN(Cc2cn(C)c3ccccc3c2=O)[C@H]2CCCN(c3ccnc(Cl)n3)C2)ccn1 [Example 54, 3-({[(3S)-1-(2-chloropyrimidin-4-yl)piperidin-3-yl][(2-methylpyridin-4-yl)methyl]amino}methyl)-1-methyl-1,4-dihydroquinolin-4-one]
	≤ 1	≤ 1	Cc1ccc(N2CCC[C@H](N(Cc3ccnc(C)c3)Cc3cn(C4CC4)c4cc(C5=CCCCC5)c(F)cc4c3=O)C2)cn1 [Example 57, 7-(cyclohex-1-en-1-yl)-1-cyclopropyl-6-fluoro-3-({[(3S)-1-(6-methylpyridin-3-yl)piperidin-3-yl][(2-methylpyridin-4-yl)methyl]amino}methyl)-1,4-dihydroquinolin-4-one]
	≤ 1	≤ 1	Cc1ccc(N2CCC[C@H](N(Cc3ccnc(C)c3)Cc3cn(C)c4c(Br)cccc4c3=O)C2)cn1 [Example 60, 8-bromo-1-methyl-3-({[(3S)-1-(6-methylpyridin-3-yl)piperidin-3-yl][(2-methylpyridin-4-yl)methyl]amino}methyl)-1,4-dihydroquinolin-4-one]
	≤ 1	≤ 1	Cc1ccc(N2CCC[C@H](N(Cc3ccnc(C)c3)Cc3cn(C(C)C)c4nc(Cl)c(F)cc4c3=O)C2)cn1 [Example 61, 7-chloro-6-fluoro-3-({[(3S)-1-(6-methylpyridin-3-yl)piperidin-3-yl][(2-methylpyridin-4-yl)methyl]amino}methyl)-1-(propan-2-yl)-1,4-dihydro-1,8-naphthyridin-4-one]
	≤ 1	≤ 1	COc1nc2c(cc1F)c(=O)c(CN(Cc1ccnc(C)c1)[C@H]1CCCN(c3ccc(C)nc3)C1)cn2C(C)C [Example 62, 6-fluoro-7-methoxy-3-({[(3S)-1-(6-methylpyridin-3-yl)piperidin-3-yl][(2-methylpyridin-4-yl)methyl]amino}methyl)-1-(propan-2-yl)-1,4-dihydro-1,8-naphthyridin-4-one]
	1 to 10	≥ 10	Cc1cc(CN(Cc2cn(C)c3ccccc3c2=O)[C@H]2CCCN(c3cccnc3)C2)n(C)n1 [Example 63, 3-({[(1,3-dimethyl-1H-pyrazol-5-yl)methyl][(3S)-1-(pyridin-3-yl)piperidin-3-yl]amino}methyl)-1-methyl-1,4-dihydroquinolin-4-one]
	≤ 1	≤ 1	Cc1ccc(N2CCC[C@H](N(Cc3ccnc(C)c3)Cc3cn(C4CC4)c4cc(C5COCCN5)ccc4c3=O)C2)cn1 (stereo partly drawn) [Example 64, 1-Cyclopropyl-3-({[(3S)-1-(6-methylpyridin-3-yl)piperidin-3-yl][(2-methylpyridin-4-yl)methyl]amino}methyl)-7-(morpholin-3-yl)-1,4-dihydroquinolin-4-one]

The remaining lines, values behind:

SMILES	hSTING FTS binding assay (ΔT C.°) (human STING)	EC50 [1] [µM]	EC50 [2] [µM]
Cc1cc(CN(Cc2cn(C)c3ccccc3c2=O)C2CCCN(c3cccnc3)C2)ccn1 (stereo not drawn) [Example 2, 1-methyl-3-({[(2-methylpyridin-4-yl)methyl][1-(pyridin-3-yl)piperidin-3-yl]amino}methyl)-1,4-dihydroquinolin-4-one]	++ (ΔTm>10° C.)	≤ 1	≤ 1
COc1cc(CN(Cc2cn(C)c3ccccc3c2=O)C2CCCN(c3cccnn3)C2)ccn1 (stereo not drawn) [Example 3, 3-({[(2-methoxypyridin-4-yl)methyl][1-(pyridazin-3-yl)piperidin-3-yl]amino}methyl)-1-methyl-1,4-dihydroquinolin-4-one]	+ (ΔTm<10° C.)	≥ 10	≥ 10
COc1cc(CN(Cc2cn(C)c3ccccc3c2=O)C2CCCN(c3cnccn3)C2)ccn1 (stereo not drawn) [Example 4, 3-({[(2-methoxypyridin-4-yl)methyl][1-(pyrazin-2-yl)piperidin-3-yl]amino}methyl)-1-methyl-1,4-dihydroquinolin-4-one]	+ (ΔTm<10° C.)	1 to 10	1 to 10
Cc1cc(CN(Cc2cn(C)c3ccccc3c2=O)[C@H]2CCCN(c3cccnc3)C2)ccn1 [Example 5, 1-methyl-3-({[(2-methylpyridin-4-yl)methyl][(3S)-1-(pyridin-3-yl)piperidin-3-yl]amino}methyl)-1,4-dihydroquinolin-4-one]	++ (ΔTm>10° C.)	≤ 1	≤ 1
COc1cc(CN(Cc2c[nH]c3ccccc3c2=O)[C@H]2CCCN(c3cccnc3)C2)ccn1 [Example 6, 3-({[(2-methoxypyridin-4-yl)methyl][(3S)-1-(pyridin-3-yl)piperidin-3-yl]amino}methyl)-1,4-dihydroquinolin-4-one]	++ (ΔTm>10° C.)	≤ 1	≤ 1
Cc1ccc(N2CCC[C@H](N(Cc3ccnc(C)c3)Cc3cn(C)c4ccccc4c3=O)C2)cn1 [Example 7, 1-methyl-3-({[(3S)-1-(6-methylpyridin-3-yl)piperidin-3-yl][(2-methylpyridin-4-yl)methyl]amino}methyl)-1,4-dihydroquinolin-4-one]		≤ 1	≤ 1
COc1ncc(N2CCC[C@H](N(Cc3ccnc(C)c3)Cc3cn(C)c4ccccc4c3=O)C2)cn1 [Example 8, 3-({[(3S)-1-(2-methoxypyrimidin-5-yl)piperidin-3-yl][(2-methylpyridin-4-yl)methyl]amino}methyl)-1-methyl-1,4-dihydroquinolin-4-one]	+ (ΔTm<10° C.)	≥ 10	≥ 10
COc1cc(CN(Cc2cn(C3CC3)c3cc(N4CCN(C)CC4)c(F)cc3c2=O)[C@H]2CCCN(c3cccnc3)C2)ccn1 [Example 9, 1-cyclopropyl-6-fluoro-3-({[(2-methoxypyridin-4-yl)methyl][(3S)-1-(pyridin-3-yl)piperidin-3-yl]amino}methyl)-7-(4-methylpiperazin-1-yl)-1,4-dihydroquinolin-4-one]	++ (ΔTm>10° C.)	≤ 1	≤ 1
Cc1cc(CN(Cc2cn(C3CC3)c3cc(N4CCN(C)CC4)c(F)cc3c2=O)[C@H]2CCCN(c3cccnc3)C2)ccn1 [Example 10, 1-cyclopropyl-6-fluoro-7-(4-methylpiperazin-1-yl)-3-({[(2-methylpyridin-4-yl)methyl][(3S)-1-(pyridin-3-yl)piperidin-3-yl]amino}methyl)-1,4-dihydroquinolin-4-one]	++ (ΔTm>10° C.)	≤ 1	≤ 1
COc1cc(CN(Cc2cn(C3CC3)c3cc(F)c(F)cc3c2=O)[C@H]2CCCN(c3cccnc3)C2)ccn1 [Example 11, 1-cyclopropyl-6,7-difluoro-3-({[(2-methoxypyridin-4-yl)methyl][(3S)-1-(pyridin-3-yl)piperidin-3-yl]amino}methyl)-1,4-dihydroquinolin-4-one]	++ (ΔTm>10° C.)	≤ 1	≤ 1
Cc1cc(CN(Cc2cn(C3CC3)c3cc(F)c(F)cc3c2=O)[C@H]2CCCN(c3cccnc3)C2)ccn1 [Example 12, 1-cyclopropyl-6,7-difluoro-3-({[(2-methylpyridin-4-yl)methyl][(3S)-1-(pyridin-3-yl)piperidin-3-yl]amino}methyl)-1,4-dihydroquinolin-4-one]	++ (ΔTm>10° C.)	≤ 1	≤ 1
Cc1cc(CN(Cc2cn(C)c3ccccc3c2=O)[C@H]2CCCN(c3ccccn3)C2)ccn1 [Example 13, 1-methyl-3-({[(2-methylpyridin-4-yl)methyl][(3S)-1-(pyridin-2-yl)piperidin-3-yl]amino}methyl)-1,4-dihydroquinolin-4-one]	+ (ΔTm<10° C.)	1 to 10	1 to 10
Cc1cc(CN(Cc2cn(C)c3ccccc3c2=O)[C@H]2CCCN(c3cc(Cl)ncn3)C2)ccn1 [Example 17, 3-({[(3S)-1-(6-chloropyrimidin-4-yl)piperidin-3-yl][(2-methylpyridin-4-yl)methyl]amino}methyl)-1-methyl-1,4-dihydroquinolin-4-one]		1 to 10	1 to 10
Cc1cc(CN(Cc2cn(C)c3ccccc3c2=O)[C@H]2CCCN(c3ccnc(Cl)n3)C2)ccn1 [Example 19, 3-({[(3S)-1-(2-chloropyrimidin-4-yl)piperidin-3-yl][(2-methylpyridin-4-yl)methyl]amino}methyl)-1-methyl-1,4-dihydroquinolin-4-one]	+ (ΔTm<10° C.)		
Cc1cc(CN(Cc2cn(C3CC3)c3cc(Cl)c(F)cc3c2=O)[C@H]2CCCN(c3cccnc3)C2)ccn1 [Example 33, 7-chloro-1-cyclopropyl-6-fluoro-3-({[(2-methylpyridin-4-yl)methyl][(3S)-1-(pyridin-3-yl)piperidin-3-yl]amino}methyl)-1,4-dihydroquinolin-4-one]		≤ 1	≤ 1
